Like-named read-outs stand apart in the source and are kept apart here.
What was measured:
[1] = biological target: 20S human housekeeping proteasome (Homo sapiens, UniProt P28074); test: 20S ChT-L proteolytic activity assay (Suc-LLVY-AMC hydrolysis, Rpt5 peptide-activated); type: biochemical; settings: for activity against 20S ChT-L proteolysis, in words: SAR comparison
Procedure: Compounds were evaluated for proteasome activity using the 20S human housekeeping proteasome. It was activated with the Rpt5 derived 10-residue peptide that contains the C-terminal HbYX (hydrophobic-Tyr-any AA) motif activating the proteasome in trans and to some extend mimic the activation by the 19S regulatory particle (Osmulski and Gaczynska (2013) Molecular pharmacology 84: 104-113; Smith et al. (2006) J. Struct. Biol. 156: 72-83; Smith et al. (2007) Mol. Cell 27: 731-744). Proteolytic activity was monitored over time using a fluorogenic peptide substrate specific for the chymotrypsin-like active center (ChT-L, Suc-LLVY-AMC) in the presence of a concentration range of the inhibitors. In this activity assay, hydrolysis of the substrate results in release of the highly fluorescent aminomethylcoumarin fluorophore. The linear portions of the fluorescence intensity plots were used to calculate the rates of Suc-LLVY-AMC hydrolysis and an IC50 (concentration of drug at which 50% of the maximum rate inhibition occurs) is determined.

26S holoenzyme = test: 26S activity in lysates (in-gel activity assay, Suc-LLVY-MCA overlay); type: cell-based, mouse; settings: model-wasted cells
Description: (§1) The mechanism of the anti-wasting action of proteasome modulators can be probed by measuring the 26S activity in lysates and measuring the levels of autophagy-related protein 7 (ATG7) in lysates. Excessive activity of 26S holoenzyme bears prime responsibility for degradation of muscle proteins during wasting. […] Autophagy, alongside proteasome pathway, aggravates degeneration.

[2] = tested on: C2C12-derived mouse myocytes; test: Cellular AFM: cell surface isotropy (cytoskeleton organization) of model myotubes; type: cell-based; settings: compound accompanies TNFα; AFM roughness analysis
Procedure: Cultured cells growing on dishes were scanned with a Catalyst Atomic Force Microscope (Bruker) mounted on a Nikon Ti inverted epifluorescent microscope. Nanomechanical parameters of cells were collected in the Quantitative Nanomechanical Mapping (PF-QNM) mode of the AFM. Before AFM imaging, optical images were recorded for each cell. SCANASYST-AIR probes were used for imaging after their spring constant was determined with the thermal tuning. Cell boundaries were located with peak force error (PFE) AFM images and further verified with height images. […] Mode values of the mechanical parameters for individual cells were calculated from the corresponding distribution histograms. The Texture Aspect Ratio, as a measure of the spatial isotropy or directionality of the surface texture was calculated from the square height images of cells after applying the first order flatten function (Roughness Analysis in NanoScope Analysis v. 1.7). […]
Cellular atomic force microscopy (AFM) of C2C12-derived mouse myocytes was utilized to show the effect of TNFα on the cytosketon organization of the myotube surface patterns (FIG. 5). The regularity of the pattern can be assessed by roughness analysis of the AFM images.
The surface isotropy parameter can quantify the regularity of the patterns observed in AFM. […]

C2C12 myotubes = test: Myotube morphology (diameters) in the TNFα-induced muscle atrophy cell culture model; type: cell-based, mouse; settings: for myotube morphology when applied alongside TNFα: TNFα 15 ng/ml for 72 hours, compound added together with TNFα; for effect on cell morphology in the control: compound without TNFα
Procedure: Mouse C2C12 myoblasts were purchased in American Tissue Type Collection (ATCC CRL-1772) were cultured in Dulbecco's modified Eagle's medium (DMEM) supplementec with 15% fetal bovine serum (FBS) and penicillin/streptomycin, at 37° C. and 5% CO2. After reaching confluence the myoblasts were differentiated into myotubes by culturing for 72 hours under low-serum conditions (2% horse serum, 0.5 microgram/ml insulin. After that, model muscle atrophy was induced by the treatment with tumor necrosis factor alpha (TNFα) at 15 ng/ml for 72 hours. Vehicle (dimethylsulfoxide; DMSO) or desired compounds (B1, C3, bortezomib) were added to the culture medium together with TNFα.
Myotubes were visualized as described in Eric J. Stevenson, et al., Journal of Applied Physiology 2005 98:4, 1396-1406. All myotubes analyzed in randomly selected microscope fields, with three diameters per tube and at least 50 myotubes analyzed per experimental point.
The diameters of C2C12 myotubes can be utilized to look for indications of degeneration.

C2C12 cells = test: Principal component analysis of AFM-assessed mechanical parameters of model myotubes; type: cell-based, mouse; settings: C2C12 cells treated with TNFα plus compound
Procedure: Cultured cells growing on dishes were scanned with a Catalyst Atomic Force Microscope (Bruker) mounted on a Nikon Ti inverted epifluorescent microscope. Nanomechanical parameters of cells were collected in the Quantitative Nanomechanical Mapping (PF-QNM) mode of the AFM. Before AFM imaging, optical images were recorded for each cell. SCANASYST-AIR probes were used for imaging after their spring constant was determined with the thermal tuning. Cell boundaries were located with peak force error (PFE) AFM images and further verified with height images. Nanomechanical parameters of cells were captured in three separate PF-QNM channels: elasticity (or stiffness—the Young's modulus), deformation and adhesion. Analysis of these parameters was performed with NanoScope Analysis software v. 1.7 (Osmulski, P. A., et al., Cancer Res. 2021 Aug. 1; 81(15):4110-4123). Force curves were fit to the Sneddon model. Mode values of the mechanical parameters for individual cells were calculated from the corresponding distribution histograms. The Texture Aspect Ratio, as a measure of the spatial isotropy or directionality of the surface texture was calculated from the square height images of cells after applying the first order flatten function (Roughness Analysis in NanoScope Analysis v. 1.7).
Mouse C2C12 myoblasts were purchased in American Tissue Type Collection (ATCC CRL-1772) were cultured in Dulbecco's modified Eagle's medium (DMEM) supplementec with 15% fetal bovine serum (FBS) and penicillin/streptomycin, at 37° C. and 5% CO2. […]
Principal component analysis (PCA) was utilized to evaluate the AFM-assessed mechanical parameters of model myotubes in C2C12 cells treated with TNFα alone or with compounds B1 or C3. […]

[3] = tested on: autophagy-related protein 7 (ATG7); test: Levels of autophagy-related protein 7 (ATG7) in lysates (Western blotting); type: cell-based, mouse; settings: model-wasted cells
Description: as §1

[4] = tested on: myofibers in quadriceps of tumor-bearing mice; test: In vivo mouse model of cancer cachexia (nude mice xenografted with PC3 cells), quadriceps myofiber diameters, H&E
Procedure: The mouse model of cancer-related muscle wasting consistent of nude mice xenografted with human cultured androgen-resistant prostate cancer PC3 cells. The mice were treated intra-tumorally (IT) with the vehicle (dimethylsulfoxide; DMSO); 8 control mice) or with 10 mg/kg of compound 3. Three injections per week (Mondays, Wednesdays, and Fridays) were carried for three weeks. After that, mice were sacrificed and quadriceps muscle tissues were preserved by standard formalin fixing. Muscle tissue slices were stained with hematoxilin and eosin (H&E standard staining) to visualize muscle fibers and enable myofiber diameter measurements under a standard microscope. Myofibers for 4 control (vehicle-treated) and 4 compound 3-treated mice were measured.
The quadriceps muscle in tumor-bearing mice treated with C3 […] a weeks for three weeks was compared to control using H&E-stained tissues slices (FIG. 10). Frequency analysis of diameters of myofibers (400 myofibers each) from tumor-bearing mice (4 each of the control-vehicle and c3 (10 mg/kg)) was performed (FIG. 11).

[5] = read-out: IC50, ChT-L activity of the 20S proteasome
[6] = Table 2, pipecolic acid derivatives, ChT-L activity of 20S, read-out: IC50
[7] = Table 3, proline derivatives, ChT-L activity of 20S, read-out: IC50

## COc1cc(CCCOC(=O)[C@@H]2CCCCN2C(=O)OCC(C)C)cc(OC)c1OC [Compound 4]
[1]; [5]
  IC50: 15.2 µM

## COc1cc(CCCOC(=O)[C@@H]2CCCN(C(=O)OCc3ccccc3)C2)cc(OC)c1OC [Compound 11]
[1]; [6]
  IC50: 14.7 µM

## COc1cc(CCCOC(=O)[C@@H]2CCCN2C(=O)OCc2ccccc2)cc(OC)c1OC [Compound 12]
[1]
  activity against 20S ChT-L proteolysis, in words: modest activity
[1]; [7]
  IC50: 23.8 µM

## COc1cc(CCOC(=O)[C@@H]2CCCCN2C(=O)OCc2ccccc2)cc(OC)c1OC [Compound 6]
[1]; [6]
  IC50: 20.1 µM

## COc1cc(COC(=O)[C@@H]2CCCCN2C(=O)OCc2ccccc2)cc(OC)c1OC [Compound 7]
[1]
  activity against 20S ChT-L proteolysis, in words: significantly reduced its activity
[1]; [6]
  IC50: 19.8 µM

## COc1cc(CCCOC(=O)C2CCCCN2C(=O)C(=O)C2CCCCC2)cc(OC)c1OC (racemic) [B1]
26S holoenzyme
  26S activity in lysates: mitigates the activity
[2]
  cell surface patterning (surface isotropy): remains control-like
C2C12 myotubes
  myotube morphology when applied alongside TNFα: restored the morphogy to control-like status
  effect on cell morphology in the control: no effect on the cell morphology
C2C12 cells
  AFM-assessed mechanical parameters (PCA phenotype): preserve the control-like phenotypes
[3]
  autophagy (ATG7 levels in lysates): does not affect or mitigates autophagy
[1]; [6]
  IC50: 5.8 µM

## O=C(OCCCc1ccccc1)[C@@H]1CCCN1C(=O)OCc1ccccc1 [Compound 13]
[1]; [5]
  IC50: 6.6 µM

## O=C(OCCc1ccccc1)[C@@H]1CCCN1C(=O)OCc1ccccc1 [Compound 14]
[1]
  activity against 20S ChT-L proteolysis, in words: decreased activity
[1]; [7]
  IC50: 19.2 µM

## COC(=O)N1CCCC[C@H]1C(=O)OCCCc1cc(OC)c(OC)c(OC)c1 [Compound 5]
[1]
  activity against 20S ChT-L proteolysis, in words: completely abrogated activity
[1]; [6]
  IC50: > 50 µM

## COc1cc(CCCOC(=O)C2CCCCN2C(=O)OCc2ccccc2)cc(OC)c1OC (racemic) [Compound 2]
[1]; [5]
  IC50: 11.5 µM

## O=C(O)[C@@H]1CCCCN1C(=O)OCc1ccccc1 [Compound 10]
[1]; [6]
  IC50: > 50 µM

## COc1cc(CCCOC(=O)[C@@H]2CCCCN2C(=O)OCc2ccccc2)cc(OC)c1OC [Compound 3]
26S holoenzyme
  26S activity in lysates: mitigates the activity
[2]
  cell surface patterning (surface isotropy): remains control-like
[4]; 400 myofibers each, 4 mice each, 10 mg/kg vs control-vehicle, difference significant at p<1.47×10^−21
  diameters of myofibers (frequency analysis): Higher values of myofiber diameters
[4]; tumor-bearing mice, 10 mg/kg intra-tumorally, three weeks, vs vehicle
  myofiber morphology in quadriceps: improved myofiber morphology
C2C12 myotubes
  myotube morphology when applied alongside TNFα: restored the morphogy to control-like status
  effect on cell morphology in the control: no effect on the cell morphology
C2C12 cells
  AFM-assessed mechanical parameters (PCA phenotype): preserve the control-like phenotypes
[3]
  autophagy (ATG7 levels in lysates): does not affect or mitigates autophagy
[1]; [6]
  IC50: 2 µM
[1]; [5]
  IC50: 3.1 µM

## O=C(OCCCc1ccccc1)[C@@H]1CCCCN1C(=O)OCc1ccccc1 [Compound 8]
[1]
  activity against 20S ChT-L proteolysis, in words: significantly reduced its activity
[1]; [6]
  IC50: 2.6 µM

## CCCOC(=O)[C@@H]1CCCCN1C(=O)OCc1ccccc1 [Compound 9]
[1]; [6]
  IC50: > 50 µM

## O=C(OCc1ccccc1)[C@@H]1CCCN1C(=O)OCc1ccccc1 [Compound 15]
[1]
  activity against 20S ChT-L proteolysis, in words: decreased activity
[1]; [7]
  IC50: 33.5 µM

## CC(C)C[C@H](NC(=O)[C@H](Cc1ccccc1)NC(=O)c1cnccn1)B(O)O [bortezomib, reference compound]
C2C12 myotubes
  myotube morphology when applied alongside TNFα: failed to protect the myotubes
  effect on cell morphology in the control: harmed the cells
C2C12 cells
  AFM-assessed mechanical parameters (PCA phenotype): does not protect the phenotypes
[3]
  autophagy (ATG7 levels in lysates): upregulates autophagy

Source: patent publication US20240423968A1, “USE OF PROTEASOME-TARGETING SMALL MOLECULES TO MITIGATE MUSCLE WASTING” (The Board of Regents of the University of Texas System, priority 2023, published 2024)
